Data from patent US4088772A, “Methanodibenzocycloheptapyrroles” (E. I. Du Pont de Nemours and Company, priority 1975, dated 1978).
Counter-ions that a name gives are not always drawn. Like-named read-outs stand apart in the source and are kept apart here.

Assays:
[1] = test system: phenylquinone-induced writhing; assay: Phenylquinone writhing test (analgesia); format: in vivo, mouse (Carworth CF1 S female); settings: for ED50: Mus musculus
Source text: This mouse test is predictive of analgesic response in humans. [E. Siegmund, R. Cadmus and G. Lee, Proc. Soc.
ED50 values were obtained graphically from the data.

[2] = test system: female white mice; assay: animal or person; settings: Mus musculus, po, oral, mice
[3] = in vivo; settings: mouse, in vivo, po
[4] = read-out: Catatonia ED50, Table 1
[5] = read-out: Exploratory Loss Visual ED50, Table 1
[6] = read-out: Muscle Tone ED50, Table 1
[7] = read-out: Reflexes Grip ED50, Table 1
[8] = read-out: Reflexes Lift ED50, Table 1
[9] = read-out: Reflexes Pinna ED50, Table 1
[10] = read-out: Catatonia ED50, Table III
[11] = read-out: Exploratory Loss Visual ED50, Table III
[12] = read-out: Muscle Tone ED50, Table III
[13] = read-out: Ptosis ED50, Table III
[14] = read-out: Reflexes Grip ED50, Table III
[15] = read-out: Reflexes Lift ED50, Table III
[16] = read-out: Reflexes Pinna ED50, Table III

## CCCCCN1C[C@@H]2c3ccccc3[C@@H]3C[C@@]2(C1)c1ccccc13 (relative stereo) [Example 59, 2-n-Pentyl-2,3,8,12b-tetrahydro-1H-3a,8-methanodibenzo[3,4:6,7]cyclohepta[1,2-c]pyrrole]
[1]; Table 1, oral, mice
  ED50: 8.2 mg/kg
[2]; [4]
  ED50: 17 mg/kg
[2]; [5]
  ED50: 8.4 mg/kg
[2]; [6]
  ED50: 13 mg/kg
[2]; read-out: Ptosis ED50, Table 1
  ED50: 4.5 mg/kg
[2]; [7]
  ED50: 100 mg/kg
[2]; [8]
  ED50: 19 mg/kg
[2]; [9]
  ED50: 8 mg/kg
[3]
  LD50 at 24 h: > 324 mg/kg

## CC(C)CCN1C[C@@H]2c3ccccc3[C@@H]3C[C@@]2(C1)c1ccccc13 (relative stereo) [Example 60, 2-(3-Methylbutyl)-2,3,8,12b-tetrahydro-1H-3a, 8-methanodibenzo[3,4:6,7]cyclohepta[1,2-c]pyrrole]
[1]; Table 1, oral, mice
  ED50: 15 mg/kg
[2]; [4]
  ED50: 20 mg/kg
[2]; [5]
  ED50: 20 mg/kg
[2]; [6]
  ED50: 20 mg/kg
[2]; read-out: Ptosis ED50, Table 1
  ED50: 36 mg/kg
[2]; [7]
  ED50: 200 mg/kg
[2]; [8]
  ED50: 60 mg/kg
[2]; [9]
  ED50: 36 mg/kg
[3]
  LD50 at 24 h: > 324 mg/kg

## c1ccc(CCCCN2C[C@@H]3c4ccccc4[C@@H]4C[C@@]3(C2)c2ccccc24)cc1 (relative stereo) [Example 61, 2-(4-Phenylbutyl)-2,3,8,12b-tetrahydro-1H-3a,8-methanodibenzo[3,4:6,7]cyclohepta[1,2-c]pyrrole]
[1]; po, Table 1, mice
  ED50: 5.6 mg/kg
[2]; [4]
  ED50: 20 mg/kg
[2]; [5]
  ED50: 20 mg/kg
[2]; [6]
  ED50: 20 mg/kg
[2]; read-out: Ptosis ED50, Table 1
  ED50: 36 mg/kg
[2]; [7]
  ED50: > 324 mg/kg
[2]; [8]
  ED50: 60 mg/kg
[2]; [9]
  ED50: 36 mg/kg
[3]
  LD50 at 24 h: > 324 mg/kg

## Nc1ccc2c(c1)[C@]13C[C@H]2c2ccccc2[C@H]1CN(CC1CCCC1)C3 (relative stereo) [Example 64, 5-Amino-2-cyclopentylmethyl-2,3,8,12b-tetrahydro-1H-3a, 8-methanodibenzo[3,4:6,7]cyclohepta[1,2-c]pyrrole Hydrochloride]
[1]; po, Table III, mice
  ED50: 6.2 mg/kg
[2]; [10]
  ED50: < 4 mg/kg
[2]; [11]
  ED50: < 4 mg/kg
[2]; [12]
  ED50: < 4 mg/kg
[2]; [13]
  ED50: < 4 mg/kg
[2]; [14]
  ED50: 200 mg/kg
[2]; [15]
  ED50: 12 mg/kg
[2]; [16]
  ED50: 7 mg/kg
[3]
  LD50 at 24 h: > 324 mg/kg

## CC(=O)Nc1ccc2c(c1)[C@]13C[C@H]2c2ccccc2[C@H]1CN(CC1CCCC1)C3 (relative stereo) [Example 65, 5-Acetamido-2-cyclopentylmethyl-2,3,8,12b-tetrahydro1H-3a,8-methanodibenzo[3,4:6,7]cyclohepta[1,2-c]pyrrole Hydrochloride]
[1]; po, Table III, mice
  ED50: 18 mg/kg
[2]; [10]
  ED50: 60 mg/kg
[2]; [11]
  ED50: 200 mg/kg
[2]; [12]
  ED50: 60 mg/kg
[2]; [13]
  ED50: 7 mg/kg
[2]; [14]
  ED50: > 324 mg/kg
[2]; [15]
  ED50: 60 mg/kg
[2]; [16]
  ED50: 36 mg/kg
[3]
  LD50 at 24 h: 300 mg/kg

## CC(=O)c1ccc2c(c1)[C@]13C[C@H]2c2ccccc2[C@H]1CN(CC1CCCC1)C3 (relative stereo) [Example 66, 5-Acetyl-2-cyclopentylmethyl-2,3,8,12b-tetrahydro-1H3a,8-methanodibenzo[3,4:6,7]cyclohepta[1,2-c]pyrrole Hydrochloride]
[1]; po, Table III, mice
  ED50: 3.1 mg/kg
[2]; [10]
  ED50: 12 mg/kg
[2]; [11]
  ED50: 7 mg/kg
[2]; [12]
  ED50: 12 mg/kg
[2]; [13]
  ED50: < 4 mg/kg
[2]; [14]
  ED50: 300 mg/kg
[2]; [15]
  ED50: 20 mg/kg
[2]; [16]
  ED50: 12 mg/kg
[3]
  LD50 at 24 h: > 324 mg/kg

## Oc1ccc2c(c1)[C@]13C[C@H]2c2ccccc2[C@H]1CN(CC1CCCC1)C3 (relative stereo) [Example 68, 5-Hydroxy-2-cyclopentylmethyl-2,3,8,12b-tetrahydro-1H-3a,8-methanodibenzo[3,4:6,7]cyclohepta[1,2-c]pyrrole Hydrochloride]
[1]; po, Table III, mice
  ED50: 19 mg/kg
[2]; [10]
  ED50: 20 mg/kg
[2]; [11]
  ED50: 12 mg/kg
[2]; [12]
  ED50: 20 mg/kg
[2]; [13]
  ED50: 12 mg/kg
[2]; [14]
  ED50: > 324 mg/kg
[2]; [15]
  ED50: 60 mg/kg
[2]; [16]
  ED50: 36 mg/kg
[3]
  LD50 at 24 h: > 324 mg/kg

## O=Cc1ccc2c(c1)[C@]13C[C@H]2c2ccccc2[C@H]1CN(CC1CCCC1)C3 (relative stereo) [Example 69, 5-Formyl-2-cyclopentylmethyl-2,3,8,12b-tetrahydro-1H-3a,8-methanodibenzo[3,4:6,7]cyclohepta[1,2-c]pyrrole Hydrochloride]
[1]; po, Table III, mice
  ED50: < 130 mg/kg
[2]; [10]
  ED50: 60 mg/kg
[2]; [11]
  ED50: 60 mg/kg
[2]; [12]
  ED50: 60 mg/kg
[2]; [13]
  ED50: 36 mg/kg
[2]; [14]
  ED50: > 324 mg/kg
[2]; [15]
  ED50: 60 mg/kg
[2]; [16]
  ED50: 20 mg/kg
[3]
  LD50 at 24 h: > 324 mg/kg

## Brc1ccc2c(c1)[C@]13C[C@H]2c2ccccc2[C@H]1CN(CC1CCCC1)C3 (relative stereo) [Example 70, 5-Bromo-2-cyclopentylmethyl-2,3,8,12b-tetrahydro-1H-3a,8-methanodibenzo[3,4:6,7]cyclohepta[1,2-c]pyrrole Hydrochloride]
[1]; po, Table III, mice
  ED50: < 130 mg/kg
[2]; [10]
  ED50: 12 mg/kg
[2]; [11]
  ED50: 20 mg/kg
[2]; [12]
  ED50: 12 mg/kg
[2]; [13]
  ED50: 7 mg/kg
[2]; [14]
  ED50: > 324 mg/kg
[2]; [15]
  ED50: 20 mg/kg
[2]; [16]
  ED50: 7 mg/kg
[3]
  LD50 at 24 h: > 324 mg/kg

## CC(=NO)c1ccc2c(c1)[C@]13C[C@H]2c2ccccc2[C@H]1CN(CC1CCCC1)C3 (relative stereo) [Example 71, 5-Acetyl-2-cyclopentylmethyl-2,3,8,12b-tetrahydro-1H-3a,8-methanodibenzo[3,4:6,7]cyclohepta[1,2-c]pyrrole Oxime Hydrochloride]
[1]; po, Table III, mice
  ED50: 21 mg/kg
[2]; [10]
  ED50: 100 mg/kg
[2]; [11]
  ED50: 7 mg/kg
[2]; [12]
  ED50: 36 mg/kg
[2]; [13]
  ED50: < 4 mg/kg
[2]; [14]
  ED50: 300 mg/kg
[2]; [15]
  ED50: 60 mg/kg
[2]; [16]
  ED50: 20 mg/kg
[3]
  LD50 at 24 h: > 324 mg/kg

## Nc1ccc2c(c1)[C@H]1CN(CC3CCCC3)C[C@@]13C[C@@H]2c1ccc(N)cc13 (relative stereo) [Example 72, 5,11-Diamino-2-cyclopentylmethyl-2,3,8,12b-tetrahydro-1H-3a,8-methanodibenzo[3,4:6,7]cyclohepta[1,2-c]pyrrole]
[1]; po, Table III, mice
  ED50: 7 mg/kg
[2]; [10]
  ED50: 20 mg/kg
[2]; [11]
  ED50: 60 mg/kg
[2]; [12]
  ED50: 36 mg/kg
[2]; [14]
  ED50: 200 mg/kg
[2]; [15]
  ED50: 60 mg/kg
[2]; [16]
  ED50: 20 mg/kg
[3]
  LD50 at 24 h: > 324 mg/kg

## O=C(O)c1ccc2c(c1)[C@]13C[C@H]2c2ccccc2[C@H]1CN(CC1CCCC1)C3 (relative stereo) [Example 73, 2-Cyclopentylmethyl-2,3,8,12b-tetrahydro-1H-3a,8-methanodibenzo[3,4:6,7]cyclohepta[1,2-c]pyrrole-5-carboxylic Acid Hydrochloride]
[1]; po, Table III, mice
  ED50: 21 mg/kg
[2]; [10]
  ED50: 60 mg/kg
[2]; [11]
  ED50: 60 mg/kg
[2]; [12]
  ED50: 36 mg/kg
[2]; [13]
  ED50: 36 mg/kg
[2]; [14]
  ED50: > 324 mg/kg
[2]; [15]
  ED50: 100 mg/kg
[2]; [16]
  ED50: 36 mg/kg
[3]
  LD50 at 24 h: > 324 mg/kg

## COC(=O)c1ccc2c(c1)[C@]13C[C@H]2c2ccccc2[C@H]1CN(CC1CCCC1)C3 (relative stereo) [Example 74, 2-Cyclopentylmethyl-2,3,8,12b-tetrahydro-1H-3a,8-methanodibenzo[3,4:6,7]cyclohepta[1,2-c]pyrrole-5-carboxylic Acid Hydrochloride, Methyl Ester]
[1]; po, Table III, mice
  ED50: 11 mg/kg
[2]; [10]
  ED50: 36 mg/kg
[2]; [11]
  ED50: 36 mg/kg
[2]; [12]
  ED50: 36 mg/kg
[2]; [13]
  ED50: < 4 mg/kg
[2]; [14]
  ED50: > 324 mg/kg
[2]; [15]
  ED50: 36 mg/kg
[2]; [16]
  ED50: 7 mg/kg
[3]
  LD50 at 24 h: > 324 mg/kg

## Clc1ccc2c(c1)[C@]13C[C@H]2c2ccccc2[C@H]1CN(CC1CCCC1)C3 (relative stereo) [Example 76, 5-Chloro-2-cyclopentylmethyl-2,3,8,12b-tetrahydro-1H-3a,8-methanodibezno[3,4:6,7]cyclohepta[1,2-c]pyrrole Hydrochloride]
[1]; po, Table III, mice
  ED50: < 130 mg/kg
[2]; [10]
  ED50: 12 mg/kg
[2]; [11]
  ED50: 7 mg/kg
[2]; [12]
  ED50: 12 mg/kg
[2]; [13]
  ED50: 7 mg/kg
[2]; [14]
  ED50: > 324 mg/kg
[2]; [15]
  ED50: 20 mg/kg
[2]; [16]
  ED50: 20 mg/kg
[3]
  LD50 at 24 h: 300 mg/kg

## Fc1ccc2c(c1)[C@]13C[C@H]2c2ccccc2[C@H]1CN(CC1CCCC1)C3 (relative stereo) [Example 77, 5-Fluoro-2-cyclopentylmethyl-2,3,8,12b-tetrahydro-1H-3a,8-methanodibenzo[3,4:6,7]cyclohepta[1,2-c]pyrrole Hydrochloride]
[1]; po, Table III, mice
  ED50: < 130 mg/kg
[2]; [10]
  ED50: 20 mg/kg
[2]; [11]
  ED50: 7 mg/kg
[2]; [12]
  ED50: 20 mg/kg
[2]; [13]
  ED50: 7 mg/kg
[2]; [14]
  ED50: > 324 mg/kg
[2]; [15]
  ED50: 20 mg/kg
[2]; [16]
  ED50: 36 mg/kg
[3]
  LD50 at 24 h: > 324 mg/kg

## FC(F)c1ccc2c(c1)[C@]13C[C@H]2c2ccccc2[C@H]1CN(CC1CCCC1)C3 (relative stereo) [Example 78, 5-Difluoromethyl-2-cyclopentylmethyl-2,3,8,12b-tetrahydro-1H-3a,8-methanodibenzo[3,4:6,7]cyclohepta[1,2c]pyrrole Hydrochloride]
[1]; po, Table III, mice
  ED50: < 130 mg/kg
[2]; [10]
  ED50: 20 mg/kg
[2]; [11]
  ED50: 7 mg/kg
[2]; [12]
  ED50: 7 mg/kg
[2]; [13]
  ED50: < 4 mg/kg
[2]; [14]
  ED50: > 324 mg/kg
[2]; [15]
  ED50: 20 mg/kg
[2]; [16]
  ED50: 7 mg/kg
[3]
  LD50 at 24 h: > 324 mg/kg

## Clc1ccc2c(c1)[C@H]1CN(CC3CCCC3)C[C@@]13C[C@@H]2c1ccc(Cl)cc13 (relative stereo) [Example 79, 5,11-Dichloro-2-cyclopentylmethyl-2,3,8,12b-tetrahydro1H-3a,8-methanodibenzo[3,4:6,7]cyclohepta[1,2-c]pyrrole Hydrochloride]
[1]; Table III, oral, mice
  Phenylquinone Analgesia ED50: active
[2]; [10]
  ED50: 20 mg/kg
[2]; [11]
  ED50: 7 mg/kg
[2]; [12]
  ED50: 36 mg/kg
[2]; [13]
  ED50: 7 mg/kg
[2]; [14]
  ED50: > 324 mg/kg
[2]; [15]
  ED50: 36 mg/kg
[2]; [16]
  ED50: 7 mg/kg
[3]
  LD50 at 24 h: > 324 mg/kg
